Data from patent US20250115597A1, “TYK2 INHIBITORS AND COMPOSITIONS AND METHODS THEREOF” (LYNK PHARMACEUTICALS CO. LTD., priority 2021, published 2025).
Read-outs that look alike come from different tables or passages of the source.

Assays:
[1] = target: T1, TYK2-JH2 domain (Homo sapiens, UniProt P29597); assay: Binding activity test for JH2 domain of TYK2 (Tb-antibody/tracer FRET); conditions: for JAK1/TYK2 selectivity: ratio JAK1-JH2 IC50 / TYK2-JH2 IC50
T1 construct: IC50 on JH2 domain activity (nM)
T1 sequence (P29597 589-875 limits assumed): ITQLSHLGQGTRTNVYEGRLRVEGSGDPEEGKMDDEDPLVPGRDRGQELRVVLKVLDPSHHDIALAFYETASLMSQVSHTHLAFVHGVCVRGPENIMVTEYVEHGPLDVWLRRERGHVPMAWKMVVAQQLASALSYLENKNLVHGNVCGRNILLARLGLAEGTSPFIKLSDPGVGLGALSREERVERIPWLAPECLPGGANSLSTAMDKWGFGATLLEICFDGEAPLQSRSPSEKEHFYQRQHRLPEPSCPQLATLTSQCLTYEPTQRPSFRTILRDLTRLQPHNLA
Outline: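 FRET read-out after 60 min at 25° C plus overnight at 4° C; tracer displacement detected via Tb-labelled antibody on the JH2 domain. Dose-response used 11 points at 3-fold dilution.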

[2] = target: T2, JAK1-JH2 domain (Homo sapiens, UniProt P23458); assay: Binding activity test for JH2 domain of JAK1 (Tb-antibody/tracer FRET)
T2 construct: IC50 on JH2 domain activity (nM)
T2 sequence (P23458 583-855 limits assumed): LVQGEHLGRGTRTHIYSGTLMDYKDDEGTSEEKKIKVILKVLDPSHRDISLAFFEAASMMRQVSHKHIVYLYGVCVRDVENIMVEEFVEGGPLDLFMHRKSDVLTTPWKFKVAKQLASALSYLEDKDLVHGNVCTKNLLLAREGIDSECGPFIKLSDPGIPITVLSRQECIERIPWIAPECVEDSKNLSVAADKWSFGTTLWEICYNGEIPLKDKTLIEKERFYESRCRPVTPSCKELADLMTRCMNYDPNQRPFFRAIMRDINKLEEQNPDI
Procedure: Binding Activity Test for […] Domain of JAK1 and TYK2 The compounds are prepared in DMSO for 200× top dose, then serial dilute it with 27-fold for 3 more points. Add 8 μL/well in echo source plate, echo will add 75 nL/well with 3-fold serial dilution for 11 points in assay plate. 75 nL DMSO for high control and low control. […] For low control, add 5 μL/well assay buffer. And then spin down at 1000 rpm and centrifuge for 30 seconds. After enzyme system prepared, add 5 μL of Tb-antibody solution into each wells of assay plate. Spin down at 1000 rpm and centrifuge for 30 sec. After Tb-antibody added, also add 5 μL of tracer into the assay plate. Spin down at 1000 rpm and centrifuge for 30 sec. Incubate for 60 mins at 25° C. firstly and then continue to incubate the plate at 4° C. overnight. Read by envision in FRET mode. The Luminescence value was recorded by a multi-label reader Envision (PerkinElmer).

[3] = target: T3, Ba/F3-FL-TYK2-P760L cells (Homo sapiens, UniProt P29597, P760L, cells depend on it); assay: Anti-proliferative assay, Ba/F3-FL-TYK2-P760L cells (Cell-Titer Glo); assay type: cell-based; conditions: 72 h, read-out: BaF3-FL-T2P760L IC50
T3 construct: BaF3-FL-T2P760L (nM)
T3 sequence (P29597 whole entry P760L): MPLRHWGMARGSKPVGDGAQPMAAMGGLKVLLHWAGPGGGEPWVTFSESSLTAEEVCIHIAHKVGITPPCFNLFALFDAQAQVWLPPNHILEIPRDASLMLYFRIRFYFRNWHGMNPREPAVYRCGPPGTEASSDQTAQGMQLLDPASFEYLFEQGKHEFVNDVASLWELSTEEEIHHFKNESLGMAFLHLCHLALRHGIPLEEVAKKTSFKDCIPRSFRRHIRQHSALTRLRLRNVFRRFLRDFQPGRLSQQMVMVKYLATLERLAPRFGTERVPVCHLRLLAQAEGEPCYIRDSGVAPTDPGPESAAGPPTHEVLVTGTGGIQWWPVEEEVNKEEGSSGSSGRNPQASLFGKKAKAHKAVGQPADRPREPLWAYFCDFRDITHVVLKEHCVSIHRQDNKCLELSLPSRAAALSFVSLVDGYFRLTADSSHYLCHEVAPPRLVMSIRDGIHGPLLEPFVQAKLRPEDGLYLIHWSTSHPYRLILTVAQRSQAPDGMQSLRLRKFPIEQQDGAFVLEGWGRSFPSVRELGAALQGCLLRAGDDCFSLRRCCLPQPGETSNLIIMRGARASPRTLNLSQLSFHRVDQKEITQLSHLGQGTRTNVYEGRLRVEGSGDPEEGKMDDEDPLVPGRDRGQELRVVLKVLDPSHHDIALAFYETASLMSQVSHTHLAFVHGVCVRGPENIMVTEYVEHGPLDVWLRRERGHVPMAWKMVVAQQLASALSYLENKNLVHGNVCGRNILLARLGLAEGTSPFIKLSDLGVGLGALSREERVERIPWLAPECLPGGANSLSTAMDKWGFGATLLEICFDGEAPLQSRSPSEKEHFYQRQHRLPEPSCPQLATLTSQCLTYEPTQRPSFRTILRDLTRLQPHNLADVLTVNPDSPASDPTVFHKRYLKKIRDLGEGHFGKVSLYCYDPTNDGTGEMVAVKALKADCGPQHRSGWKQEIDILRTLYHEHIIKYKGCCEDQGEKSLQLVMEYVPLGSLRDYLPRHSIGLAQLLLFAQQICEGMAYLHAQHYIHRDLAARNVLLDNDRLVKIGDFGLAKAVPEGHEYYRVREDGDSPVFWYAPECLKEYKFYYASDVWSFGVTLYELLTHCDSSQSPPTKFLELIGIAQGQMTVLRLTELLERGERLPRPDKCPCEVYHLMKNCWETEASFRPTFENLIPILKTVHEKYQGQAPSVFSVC
Outline: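 Compound exposure ran 72 h at 37 °C in 5% CO2 across nine 3-fold concentrations from a 20 μM top dose, added 24 h after seeding 2000 cells/well.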

[4] = Microsomal metabolic stability assay; assay type: in vitro ADME; conditions: pH 7.4, 0.5 mg/mL protein, 1 μM compound
Outline: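 Parent loss was tracked by LC/MS/MS at 0, 5, 15, 30 and 45 min, with half-life derived from the ln(% remaining)–time slope. Incubation at 37 °C, pH 7.4 phosphate/EDTA buffer: 0.5 mg/mL microsomes, 1 μM compound, NADPH-regenerated (2 mM).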

[5] = dog liver microsomes, read-out: Dog LM Clint
[6] = dog liver microsomes, read-out: Dog LM T½
[7] = human liver microsomes, read-out: Human LM Clint
[8] = human liver microsomes, read-out: Human LM T½
[9] = rat liver microsomes, read-out: Rat LM Clint
[10] = rat liver microsomes, read-out: Rat LM T½

IC50 [1] [nM] | JAK1/TYK2 selectivity [1] | IC50 [2] [nM] | GI50 [3] [nM] | microsomal CLint at 1 μM [4, 5] [µL/min/mg] | half-life at 1 μM [4, 6] [min] | microsomal CLint at 1 μM [4, 7] [µL/min/mg] | half-life at 1 μM [4, 8] [min] | microsomal CLint at 1 μM [4, 9] [µL/min/mg] | half-life at 1 μM [4, 10] [min] | Compound
0.455 | 33.2 | 15.1 | 71.3 | 51.9 | 26.7 | 50.4 | 27.5 | 90.5 | 15.3 | [2H]C([2H])([2H])NC(=O)c1cnc(Nc2ccncn2)cc1Nc1ccc2cnn(C([2H])([2H])[2H])c2c1OC [Example 153, 4-((7-Methoxy-1-(methyl-d3)-1H-indazol-6-yl)amino)-N-(methyl-d3)-6-(pyrimidin-4-ylamino)nicotinamide]
0.233 | 30.19 | 7.04 | 160 | – | – | – | – | – | – | [2H]C([2H])([2H])NC(=O)c1cnc(NC(=O)C2CC2)cc1Nc1ccn2ncc(C3CC3)c2c1OC [Example 250, 6-(Cyclopropanecarboxamido)-4-((3-cyclopropyl-4-methoxypyrazolo[1,5-a]pyridin-5-yl)amino)-N-(methyl-d3)nicotinamide]
0.304 | 18.32 | 5.57 | 117 | – | – | – | – | – | – | [2H]C([2H])([2H])NC(=O)c1cnc(NC(=O)C2CC2)cc1Nc1ccn2ncc(C(C)C#N)c2c1OC (centres unmarked) [Example 251, 4-((3-(1-Cyanoethyl)-4-methoxypyrazolo[1,5-a]pyridin-5-yl)amino)-6-(cyclopropanecarboxamido)-N-(methyl-d3)nicotinamide]
1.68 | 125.69 | 212 | > 5000 | – | – | – | – | – | – | [2H]C([2H])([2H])NC(=O)c1cnc(NC(=O)C2CC2)cc1Nc1ccn2ncc(C(C)C(N)=O)c2c1OC (centres unmarked) [Example 252, 4-((3-(1-Amino-1-oxopropan-2-yl)-4-methoxypyrazolo[1,5-a]pyridin-5-yl)amino)-6-(cyclopropanecarboxamido)-N-(methyl-d3)nicotinamide]
0.783 | 24.33 | 19 | 232 | – | – | – | – | – | – | [2H]C([2H])([2H])NC(=O)c1cnc(NC(=O)C2CC2)cc1Nc1ccn2ncc(F)c2c1OC [Example 253, 6-(Cyclopropanecarboxamido)-4-((3-fluoro-4-methoxypyrazolo[1,5-a]pyridin-5-yl)amino)-N-(methyl-d3)nicotinamide]
0.323 | 13.7 | 4.42 | 116 | – | – | – | – | – | – | [2H]C([2H])([2H])NC(=O)c1cnc(Nc2ccn(C)n2)cc1Nc1ccn2ncc(C)c2c1OC [Example 255, 4-((4-Methoxy-3-methylpyrazolo[1,5-a]pyridin-5-yl)amino)-N-(methyl-d3)-6-((1-methyl-1H-pyrazol-3-yl)amino)nicotinamide]
0.135 | 23.5 | 3.18 | 39.7 | 9.01 | 154 | 9.51 | 146 | 20.2 | 68.5 | [2H]C([2H])([2H])NC(=O)c1cnc(Nc2ccc(F)cn2)cc1Nc1ccn2ncc(C#N)c2c1OC [Example 257, 4-((3-Cyano-4-methoxypyrazolo[1,5-a]pyridin-5-yl)amino)-6-((5-fluoropyridin-2-yl)amino)-N-(methyl-d3)nicotinamide]
0.834 | 17.9 | 14.9 | 205 | – | – | – | – | – | – | [2H]C([2H])([2H])NC(=O)c1cnc(NC(=O)C2CC2)cc1Nc1ccn2nccc2c1OC [Example 258, 6-(Cyclopropanecarboxamido)-4-((4-methoxypyrazolo[1,5-a]pyridin-5-yl)amino)-N-(methyl-d3)nicotinamide]
0.29 | 87.4 | 25.4 | 41.7 | 97.2 | 14.3 | 29.2 | 47.5 | 40.9 | 33.9 | [2H]C([2H])([2H])NC(=O)c1cnc(Nc2ccc(F)cn2)cc1Nc1ncc2cnn(CC)c2c1OC [Example 263, 4-((1-Ethyl-7-methoxy-1H-pyrazolo[4,3-c]pyridin-6-yl)amino)-6-((5-fluoropyridin-2-yl)amino)-N-(methyl-d3)nicotinamide]
0.181 | 51.1 | 9.25 | 227 | – | – | – | – | – | – | [2H]C([2H])([2H])NC(=O)c1cnc(NC(=O)C2CC2)cc1Nc1ncc2cnn(C3CC3)c2c1OC [Example 267, 6-(Cyclopropanecarboxamido)-4-((1-cyclopropyl-7-methoxy-1H-pyrazolo[4,3-c]pyridin-6-yl)amino)-N-(methyl-d3)nicotinamide]
0.166 | 16.1 | 2.68 | 28.4 | – | – | – | – | – | – | [2H]C([2H])([2H])NC(=O)c1cnc(Nc2ccc(N3CCOCC3)cn2)cc1Nc1ccc2cnn(CC)c2c1OC [Example 273, 4-((1-Ethyl-7-methoxy-1H-indazol-6-yl)amino)-N-(methyl-d3)-6-((5-morpholinopyridin-2-yl)amino)nicotinamide]
0.449 | 60.2 | 27 | 118 | – | – | – | – | – | – | [2H]C([2H])([2H])NC(=O)c1cnc(NC(=O)C2CC2)cc1Nc1ncc2cnn(CCC(F)(F)F)c2c1OC [Example 275, 6-(Cyclopropanecarboxamido)-4-((7-methoxy-1-(3,3,3-trifluoropropyl)-1H-pyrazolo[4,3-c]pyridin-6-yl)amino)-N-(methyl-d3)nicotinamide]
0.253 | 436.1 | 110 | 88.2 | – | – | – | – | – | – | [2H]C([2H])([2H])NC(=O)c1cnc(NC(=O)C2CC2)cc1Nc1ncc2cnn(CC(C)(F)F)c2c1OC [Example 276, 6-(Cyclopropanecarboxamido)-4-((1-(2,2-difluoropropyl)-7-methoxy-1H-pyrazolo[4,3-c]pyridin-6-yl)amino)-N-(methyl-d3)nicotinamide]
1.11 | 55.5 | 61.4 | 60.2 | – | – | – | – | – | – | [2H]C([2H])([2H])NC(=O)c1cnc(Nc2ccc(F)cn2)cc1Nc1ncc2cnn(C([2H])([2H])[2H])c2c1OC [Example 277, 6-((5-Fluoropyridin-2-yl)amino)-4-((7-methoxy-1-(methyl-d3)-1H-pyrazolo[4,3-c]pyridin-6-yl)amino)-N-(methyl-d3)nicotinamide]
0.385 | 25.0 | 9.63 | 130 | – | – | – | – | – | – | [2H]C([2H])([2H])NC(=O)c1cnc(NC(=O)C2CC2)cc1Nc1ccn2ncc(OC)c2c1OC [Example 278, 6-(Cyclopropanecarboxamido)-4-((3,4-dimethoxypyrazolo[1,5-a]pyridin-5-yl)amino)-N-(methyl-d3)nicotinamide]

Compound | IC50 [1] [nM] | JAK1/TYK2 selectivity [1] | IC50 [2] [nM] | GI50 [3] [nM] | microsomal CLint at 1 μM [4, 5] [µL/min/mg] | half-life at 1 μM [4, 6] [min] | microsomal CLint at 1 μM [4, 7] [µL/min/mg] | half-life at 1 μM [4, 8] [min] | microsomal CLint at 1 μM [4, 9] [µL/min/mg] | half-life at 1 μM [4, 10] [min]
[2H]C([2H])([2H])NC(=O)c1cnc(NC(=O)C2CC2)cc1Nc1ccc2cnn(CC(N)=O)c2c1OC [Example 259, 4-((1-(2-Amino-2-oxoethyl)-7-methoxy-1H-indazol-6-yl)amino)-6-(cyclopropanecarboxamido)-N-(methyl-d3)nicotinamide] | 6.29 | 12.7 | 79.9 | > 5000 | 9.24 | 150 | 4.39 | 316 | 4.7 | 295
[2H]C([2H])([2H])NC(=O)c1cnc(NC(=O)C2CC2)cc1Nc1ncc2ncn(CC)c2c1OC [Example 260, 6-(Cyclopropanecarboxamido)-4-((1-ethyl-7-methoxy-1H-imidazo[4,5-c]pyridin-6-yl)amino)-N-(methyl-d3)nicotinamide] | 0.124 | 78.9 | 9.78 | 143 | – | – | – | – | – | –
